A short description of data set [1]: Human plasma protein binding by equilibrium dialysis. The following applies: percentage bound. Type of data set: in vitro ADME. How it is done: The amount of compound in buffer (free fraction) and the amount of compound associated with the plasma fraction is determined by equilibrium dialysis; the amount of compound bound is expressed as a percentage. (Banker et al., Journal of Pharmaceutical Sciences (2003) 92(5): 967-74.)
On the technique in general: In equilibrium dialysis only unbound substance equilibrates across the membrane.

Another data set concerns the target hERG (Homo sapiens, UniProt Q12809). Briefly: Patch clamp selectivity, hERG. It counts as cell-based. The method, then:
(§1) Data for TRPA1 inhibition and the selectivity of TRPA1 inhibition was obtained by this method for the compound of Formula (Ia) and included in Table 1 and Table 2. All currents were recorded in whole-cell configuration using EPC-9 and EPC-10 amplifiers and Patchmaster software (HEKA). […] The standard pipette solution consisted of 140 mM CsAsp, 10 mM EGTA, 10 mM HEPES, 2.27 mM MgCl2, 1.91 mM CaCl2, 4 mM MgATP, and 0.1-0.3 mM Na2GTP, with pH adjusted to 7.2 with CsOH. In addition, a solution containing 145 mM CsCl, 10 mM HEPES, 10 mM EGTA and 1 mM MgCl2 (pH 7.2 adjusted with CsOH) can be used. The standard bath solution contained 150 mM NaCl, 10 mM HEPES, 10 mM glucose, 4.5 mM KCl, 1 mM EGTA, 3 mM MgCl2, with pH adjusted to 7.4 with NaOH. In some instances, 2 mM CaCl2 was added in place of EGTA and the concentration of MgCl2 was reduced to 1 mM.
(§2) Data were collected either by continuous recordings at −60 mV or by applying voltage ramps from a holding potential of 0 mV every 4 s. […] Inward and outward currents were analyzed from the ramps at −80 and 80 mV, respectively. […]
(§3) Solutions were switched using a gravity-fed continuous focal perfusion system. […] Temperatures were confirmed using a thermistor (Warner Instruments, TA-29), with temperatures at the recorded cell estimated to be within +/−2° C. of those reported. […]
In general terms: The patch-clamp technique gives a direct electrical read-out from membranes.

In the next data set the target is hTRPV1 (Homo sapiens, UniProt Q8NER1). Briefly: Patch clamp selectivity, hTRPV1. Type of data set: cell-based. The method, then:
as §1, §2, §3

Another data set has as its target hTRPV4 (Homo sapiens, UniProt Q9HBA0). Briefly: Patch clamp selectivity, hTRPV4 block. Type of data set: cell-based. The method, then:
as §1, §2, §3

Another data set has as its target hTRPM8 (Homo sapiens, UniProt Q7Z2W7). Kind of data set: Patch clamp selectivity, hTRPM8. Type of data set: cell-based. How it is done: as §1, §2, §3
Another data set has as its target hNaV1.2 (Homo sapiens, UniProt Q99250). Kind of data set: Patch clamp selectivity, hNaV1.2. It counts as cell-based. The method, then:
as §1, §2, §3

The target of a further data set is dTRPA1 (Canis lupus familiaris, UniProt A0A8I3Q1Q7). Briefly: Whole-cell patch clamp block of inward current through dTRPA1. It counts as cell-based, Dog. How it is done:
as §1
(§4) Data were collected either by continuous recordings at −60 mV or by applying voltage ramps from a holding potential of 0 mV every 4 s. Continuous recordings were collected at 400 Hz and digitally filtered off-line at 10 Hz for presentation. Voltage ramps were applied from −100 mV to 100 mV over the course of 400 ms, and data were collected at 10 kHz and filtered at 2.9 kHz. Inward and outward currents were analyzed from the ramps at −80 and 80 mV, respectively. Liquid junction potential correction was not used.
(§5) Solutions were switched using a gravity-fed continuous focal perfusion system. To achieve rapid temperature changes, two temperature control and perfusion systems were employed simultaneously. For temperatures ≧22° C., a Warner Instruments bipolar temperature controller (TC-344B) and inline heater (SHM-8) were used. […] Temperatures were confirmed using a thermistor (Warner Instruments, TA-29), with temperatures at the recorded cell estimated to be within +/−2° C. of those reported.
(§6) IC50 of compounds was estimated by testing each compound at 5 micromolar and 500 nanomolar. […] IC50 for compounds between 500 nanomolar and 5 micromolar was similarly estimated. […]

The next data set concerns the target T1, hTRPV6 (Homo sapiens, UniProt Q9H1D0).
T1 sequence (Q9H1D0 1-765): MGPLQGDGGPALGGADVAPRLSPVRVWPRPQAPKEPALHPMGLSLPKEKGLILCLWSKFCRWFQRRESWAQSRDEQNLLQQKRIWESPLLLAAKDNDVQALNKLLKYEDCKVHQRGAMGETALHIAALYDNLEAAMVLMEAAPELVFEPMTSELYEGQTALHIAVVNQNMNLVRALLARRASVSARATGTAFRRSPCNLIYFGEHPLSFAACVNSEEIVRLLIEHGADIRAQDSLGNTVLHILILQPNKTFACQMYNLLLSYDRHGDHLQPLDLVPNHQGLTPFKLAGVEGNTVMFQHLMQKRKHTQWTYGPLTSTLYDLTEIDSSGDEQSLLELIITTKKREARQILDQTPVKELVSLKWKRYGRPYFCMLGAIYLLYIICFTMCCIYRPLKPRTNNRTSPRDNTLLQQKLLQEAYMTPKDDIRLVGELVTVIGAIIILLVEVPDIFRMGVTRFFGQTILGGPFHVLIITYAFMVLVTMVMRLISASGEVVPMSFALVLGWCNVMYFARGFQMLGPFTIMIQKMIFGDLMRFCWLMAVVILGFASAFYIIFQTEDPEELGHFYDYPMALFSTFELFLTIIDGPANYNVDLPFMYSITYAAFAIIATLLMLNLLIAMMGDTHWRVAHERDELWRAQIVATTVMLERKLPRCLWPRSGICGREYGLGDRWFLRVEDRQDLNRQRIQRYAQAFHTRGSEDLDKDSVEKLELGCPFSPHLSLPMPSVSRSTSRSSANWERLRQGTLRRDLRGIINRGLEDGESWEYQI
Kind of data set: Patch clamp selectivity, hTRPV6. It counts as cell-based. How it is done:
as §1, §2, §3

In the next data set the target is rTRPA1 (Rattus norvegicus, UniProt Q6RI86). Briefly: Whole-cell patch clamp block of inward current through rTRPA1. Type of data set: cell-based. How it is done: as §1, §4, §5, §6

Broadly, the fraction unbound is free concentration divided by total concentration. One may read the IC50 as the concentration that gives 50% inhibition.

Molecules are shown by their SMILES. Read-outs that look alike come from different tables or passages of the source.

Chain of hTRPV1 (Q8NER1 whole entry): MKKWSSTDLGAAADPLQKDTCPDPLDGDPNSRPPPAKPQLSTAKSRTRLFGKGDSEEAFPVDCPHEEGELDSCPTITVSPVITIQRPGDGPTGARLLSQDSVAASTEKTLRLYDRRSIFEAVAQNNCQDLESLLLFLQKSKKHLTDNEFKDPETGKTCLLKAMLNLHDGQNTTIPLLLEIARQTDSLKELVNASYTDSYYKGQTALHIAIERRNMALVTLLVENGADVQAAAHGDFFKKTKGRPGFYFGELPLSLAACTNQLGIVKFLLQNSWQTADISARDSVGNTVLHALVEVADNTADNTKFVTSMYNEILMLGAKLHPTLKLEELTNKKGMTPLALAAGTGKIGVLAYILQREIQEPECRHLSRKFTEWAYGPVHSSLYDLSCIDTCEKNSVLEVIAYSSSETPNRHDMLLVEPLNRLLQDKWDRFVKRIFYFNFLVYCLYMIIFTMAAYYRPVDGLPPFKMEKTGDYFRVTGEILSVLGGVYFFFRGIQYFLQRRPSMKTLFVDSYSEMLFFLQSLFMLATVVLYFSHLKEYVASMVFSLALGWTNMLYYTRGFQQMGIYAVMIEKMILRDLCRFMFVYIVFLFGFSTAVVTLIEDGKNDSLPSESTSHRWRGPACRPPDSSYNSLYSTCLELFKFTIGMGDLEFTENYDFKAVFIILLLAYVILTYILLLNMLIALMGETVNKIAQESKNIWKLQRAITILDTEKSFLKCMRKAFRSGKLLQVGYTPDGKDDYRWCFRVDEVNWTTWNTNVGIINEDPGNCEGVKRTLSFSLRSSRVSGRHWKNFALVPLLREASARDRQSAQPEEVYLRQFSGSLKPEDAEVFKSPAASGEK
Chain of hERG (Q12809 whole entry): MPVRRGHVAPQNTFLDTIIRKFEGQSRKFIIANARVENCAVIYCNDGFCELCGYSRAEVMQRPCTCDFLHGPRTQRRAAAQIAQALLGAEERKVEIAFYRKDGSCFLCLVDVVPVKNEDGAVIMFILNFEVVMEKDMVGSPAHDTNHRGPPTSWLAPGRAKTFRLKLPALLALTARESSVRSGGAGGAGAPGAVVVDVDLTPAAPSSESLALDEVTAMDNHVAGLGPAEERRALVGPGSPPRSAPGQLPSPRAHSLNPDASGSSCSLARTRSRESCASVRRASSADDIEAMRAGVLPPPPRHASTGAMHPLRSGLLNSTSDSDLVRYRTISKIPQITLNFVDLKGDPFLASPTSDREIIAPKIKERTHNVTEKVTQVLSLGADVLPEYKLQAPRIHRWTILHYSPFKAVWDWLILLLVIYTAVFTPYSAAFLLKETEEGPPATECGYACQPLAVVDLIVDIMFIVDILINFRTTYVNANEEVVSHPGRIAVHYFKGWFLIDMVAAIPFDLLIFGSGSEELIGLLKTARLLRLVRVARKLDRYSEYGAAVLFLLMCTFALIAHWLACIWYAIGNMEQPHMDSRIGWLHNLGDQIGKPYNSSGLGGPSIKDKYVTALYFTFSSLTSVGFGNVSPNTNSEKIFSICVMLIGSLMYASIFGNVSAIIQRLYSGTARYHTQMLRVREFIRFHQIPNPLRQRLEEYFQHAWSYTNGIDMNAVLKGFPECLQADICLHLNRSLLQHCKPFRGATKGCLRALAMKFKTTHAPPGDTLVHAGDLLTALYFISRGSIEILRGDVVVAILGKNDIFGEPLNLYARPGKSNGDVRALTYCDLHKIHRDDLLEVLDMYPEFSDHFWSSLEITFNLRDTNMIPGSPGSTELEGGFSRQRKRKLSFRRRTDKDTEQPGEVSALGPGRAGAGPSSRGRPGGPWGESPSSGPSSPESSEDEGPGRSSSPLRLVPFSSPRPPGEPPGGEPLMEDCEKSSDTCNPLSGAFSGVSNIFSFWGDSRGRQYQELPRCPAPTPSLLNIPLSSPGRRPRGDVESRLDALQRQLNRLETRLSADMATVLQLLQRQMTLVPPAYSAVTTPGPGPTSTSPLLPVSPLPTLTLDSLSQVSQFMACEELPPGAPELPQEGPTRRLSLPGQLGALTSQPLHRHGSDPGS
Chain of hTRPV4 (Q9HBA0 whole entry): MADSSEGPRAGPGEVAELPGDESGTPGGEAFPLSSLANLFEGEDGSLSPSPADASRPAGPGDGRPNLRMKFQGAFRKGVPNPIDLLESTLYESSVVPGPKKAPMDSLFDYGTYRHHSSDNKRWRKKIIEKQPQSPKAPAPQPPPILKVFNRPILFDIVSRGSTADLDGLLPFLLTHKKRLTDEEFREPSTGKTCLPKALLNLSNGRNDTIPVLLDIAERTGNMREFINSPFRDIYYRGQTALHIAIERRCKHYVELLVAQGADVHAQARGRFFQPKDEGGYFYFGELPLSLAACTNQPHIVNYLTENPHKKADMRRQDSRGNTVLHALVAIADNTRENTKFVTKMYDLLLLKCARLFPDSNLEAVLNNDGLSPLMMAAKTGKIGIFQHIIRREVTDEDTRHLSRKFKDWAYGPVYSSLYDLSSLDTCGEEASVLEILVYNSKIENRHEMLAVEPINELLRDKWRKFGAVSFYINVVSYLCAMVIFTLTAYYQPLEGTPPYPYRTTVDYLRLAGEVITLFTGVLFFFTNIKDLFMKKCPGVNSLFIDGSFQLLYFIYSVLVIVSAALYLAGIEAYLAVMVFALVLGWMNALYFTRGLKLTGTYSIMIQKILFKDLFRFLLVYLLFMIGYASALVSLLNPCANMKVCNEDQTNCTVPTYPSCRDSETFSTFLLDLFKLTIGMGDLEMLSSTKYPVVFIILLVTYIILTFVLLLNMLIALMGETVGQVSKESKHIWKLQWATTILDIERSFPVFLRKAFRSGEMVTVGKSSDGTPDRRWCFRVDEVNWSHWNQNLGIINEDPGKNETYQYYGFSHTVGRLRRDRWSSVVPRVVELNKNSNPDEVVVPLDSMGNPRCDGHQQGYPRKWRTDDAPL
Chain of dTRPA1 (A0A8I3Q1Q7 1-1118): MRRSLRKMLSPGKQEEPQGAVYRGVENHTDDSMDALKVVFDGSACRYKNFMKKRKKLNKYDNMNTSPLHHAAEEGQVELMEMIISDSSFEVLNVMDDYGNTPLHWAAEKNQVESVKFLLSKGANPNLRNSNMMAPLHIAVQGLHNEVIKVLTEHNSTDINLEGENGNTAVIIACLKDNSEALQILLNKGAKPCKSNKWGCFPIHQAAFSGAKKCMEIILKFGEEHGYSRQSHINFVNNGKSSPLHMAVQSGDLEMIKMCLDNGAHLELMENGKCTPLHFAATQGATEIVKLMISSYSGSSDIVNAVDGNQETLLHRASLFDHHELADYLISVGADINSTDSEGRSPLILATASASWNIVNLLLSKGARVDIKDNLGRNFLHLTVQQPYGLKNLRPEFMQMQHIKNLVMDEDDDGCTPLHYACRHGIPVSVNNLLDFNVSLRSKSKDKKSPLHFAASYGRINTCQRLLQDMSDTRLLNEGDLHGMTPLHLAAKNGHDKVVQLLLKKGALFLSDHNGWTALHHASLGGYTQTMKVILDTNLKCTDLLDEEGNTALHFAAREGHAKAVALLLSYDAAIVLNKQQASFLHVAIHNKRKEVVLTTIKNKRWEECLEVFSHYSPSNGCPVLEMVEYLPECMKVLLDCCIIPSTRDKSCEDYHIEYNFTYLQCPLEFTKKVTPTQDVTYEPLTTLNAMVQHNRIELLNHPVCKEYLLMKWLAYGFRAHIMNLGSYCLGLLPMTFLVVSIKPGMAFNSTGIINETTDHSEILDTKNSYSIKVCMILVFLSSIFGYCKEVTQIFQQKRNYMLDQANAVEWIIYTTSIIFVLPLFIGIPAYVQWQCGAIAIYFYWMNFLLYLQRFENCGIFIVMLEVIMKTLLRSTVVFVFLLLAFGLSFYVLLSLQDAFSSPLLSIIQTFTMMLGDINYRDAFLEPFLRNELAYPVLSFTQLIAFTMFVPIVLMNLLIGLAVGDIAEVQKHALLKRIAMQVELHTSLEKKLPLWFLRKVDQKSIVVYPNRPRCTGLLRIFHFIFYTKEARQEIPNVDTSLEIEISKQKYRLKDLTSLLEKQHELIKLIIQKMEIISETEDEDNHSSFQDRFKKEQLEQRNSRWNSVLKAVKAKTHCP
Chain of hTRPM8 (Q7Z2W7 whole entry): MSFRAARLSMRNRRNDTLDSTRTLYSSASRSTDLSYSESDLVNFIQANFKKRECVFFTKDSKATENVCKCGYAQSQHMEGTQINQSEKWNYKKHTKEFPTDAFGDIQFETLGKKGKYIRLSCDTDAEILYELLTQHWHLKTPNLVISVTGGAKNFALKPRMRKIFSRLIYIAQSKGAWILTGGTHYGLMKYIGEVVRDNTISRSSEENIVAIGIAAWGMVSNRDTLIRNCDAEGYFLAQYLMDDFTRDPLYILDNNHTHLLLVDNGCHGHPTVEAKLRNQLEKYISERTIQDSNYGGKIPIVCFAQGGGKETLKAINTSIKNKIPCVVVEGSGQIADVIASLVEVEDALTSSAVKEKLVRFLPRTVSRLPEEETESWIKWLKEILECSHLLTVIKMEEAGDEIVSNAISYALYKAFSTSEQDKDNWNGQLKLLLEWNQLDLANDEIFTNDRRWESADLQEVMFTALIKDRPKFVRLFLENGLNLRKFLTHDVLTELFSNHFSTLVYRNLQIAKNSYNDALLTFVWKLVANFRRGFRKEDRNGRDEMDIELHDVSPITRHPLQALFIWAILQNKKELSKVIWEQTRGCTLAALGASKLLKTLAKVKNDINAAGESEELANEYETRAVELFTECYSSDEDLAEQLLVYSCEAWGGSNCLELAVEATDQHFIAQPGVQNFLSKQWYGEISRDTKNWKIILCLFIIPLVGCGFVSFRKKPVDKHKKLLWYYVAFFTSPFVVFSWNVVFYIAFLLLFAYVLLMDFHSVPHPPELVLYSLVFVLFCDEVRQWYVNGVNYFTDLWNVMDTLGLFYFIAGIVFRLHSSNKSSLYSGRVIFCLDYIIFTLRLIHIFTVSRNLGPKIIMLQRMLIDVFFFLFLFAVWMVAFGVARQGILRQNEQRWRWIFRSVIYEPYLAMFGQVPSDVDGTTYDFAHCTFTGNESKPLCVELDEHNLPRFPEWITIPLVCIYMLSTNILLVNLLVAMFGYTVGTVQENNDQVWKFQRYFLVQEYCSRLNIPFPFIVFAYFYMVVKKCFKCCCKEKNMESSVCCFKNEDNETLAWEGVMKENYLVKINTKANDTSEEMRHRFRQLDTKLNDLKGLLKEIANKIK

`C[C@H]1CCCN1c1ncc(-c2cccc(NC(=O)Cn3cnc4c3c(=O)n(C)c(=O)n4C)n2)cn1` [Formula (Ia)] registered an unbound share (fraction unbound) in [1] above 0.01. The IC50 against hERG (Voltage, Tail current (−40 mV)) is above 10 µM; on hTRPV1 (500 nanomolar Capsaicin, Inward (−80 mV)), above 10 µM; at hTRPV4 (2 micromolar 4α-PDD, Inward (−80 mV)), 16 µM; on hTRPM8 (100 micromolar Menthol, Inward (−80 mV)), 19 µM; against hNaV1.2 (Voltage, Peak Inward (0 mV)), above 10 µM; at dTRPA1 (class symbol, read-out: Potency (IC50) Dog), at least 0.1 µM. Also, the IC50 at dTRPA1 (dTRPA1, Dog, current activation 10 micromolar AITC, read-out: IC50 Inward current) was 0.102 ± 0.02 µM; at hTRPV6 (Voltage, Inward (−80 mV)), 34 µM; on rTRPA1 (class symbol, read-out: Potency (IC50) Rat) it was at least 0.1 µM; at rTRPA1 (rTRPA1, Rat, current activation 10 micromolar AITC, read-out: IC50 Inward current), 0.101 ± 0.008 µM. Besides, the selectivity ratio at hERG (human, pH 7.4, read-out: Fold Selectivity Compared to TRPA1) was above 100. The “Fold Selectivity Compared to TRPA1” value is recorded as above 100 fold at hTRPV1; around 170 fold at hTRPV4; around 200 fold at hTRPM8; above 100 fold on hNaV1.2; around 370 fold on hTRPV6.

These data come from patent publication US20140158116A1, “INHIBITING TRPA1 FOR THE TREATMENT OF ASTHMA” (Cubist Pharmaceuticals, Inc., priority 2012, published 2014).
